The values that follow come from patent US11191722B2, “Treatment of diabetes mellitus by long-acting formulations of insulins” (SANOFI, priority 2013, dated 2021).

This data set concerns patients with type 2 diabetes mellitus. Conditions: in vivo.

Source text: Hypoglycemia, occurrence of adverse events particularly treatment-emergent adverse events (TEAEs) and serious adverse events (SAEs), injection site reactions and hypersensitivity reactions.
Safety analyses were descriptive, based on the safety population.

Turning to insulin glargine [Lantus], the “Death on-study during first 6 months” value is recorded as 2 (0.5%) n (%) and the Death post-study is recorded as 0 n (%).
The corresponding values for insulin glargine [HOE901-U300] are 2 (0.5%) n (%) and 0 n (%).
